Five compounds from patent publication US11767295B2, “Isoindole derivative” (TIANJIN HEMAY PHARMACEUTICAL CO., LTD., priority 2018, dated 2023) can be followed below.

Structures are written as SMILES.

Type in all cases: in vivo
The test system of data set [1] is ICR mice. The data set is described as follows: Acute toxicity test of single gavage in mice (Biological Example 9). As to conditions: single gavage 2000 mg/Kg; for Death of animals: 3 male and 3 female, until the end of the test. As for the experimental part:
30 healthy ICR mice of SPF grade were randomly divided into 5 groups according to the gender segment, in which 15 mice were male and 15 mice were female. There were 3 mice/gender/group. There were 6 mice in each group, in which 3 mice were male and 3 mice were female.
Single administration by gavage was carried out. The symptoms and responses of all the animals were observed after the administration and were recorded faithfully. The test was observed continuously for 15 days. The symptoms of the animals were recorded. After the test, the tissues and organs of all the animals were weighed, observed and recorded. The specimens were kept.
Body weight, appearance, breath, behavior, reflex and defecation.

Data set [2] concerns DNCB-induced atopic dermatitis in Balb/c mice. Put plainly: Efficacy evaluation test of DNCB-induced atopic dermatitis in Balb/c mice model (Biological Example 2). The following applies: BID × 10; for Inhibitory Rate of Ear Swelling / Weight Changes of Animals, Day 10 / Weight Changes of Animals, Day 17 / Weight Changes of Animals, Day 18 / Ear Swelling Degree / IgE Concentration / Inhibitory Rate of IgE Concentration: 1 mg/mouse on ear; for Inhibitory Rate of Ear Swelling / Ear Swelling Degree / IgE Concentration / Inhibitory Rate of IgE Concentration: 18th day; for Inhibitory Rate of Ear Swelling / Inhibitory Rate of IgE Concentration: vs model and blank control; for Weight Changes of Animals, Day 1 / Weight Changes of Animals, Day 10 / Weight Changes of Animals, Day 17 / Weight Changes of Animals, Day 18: Balb/c mice, Mean ± S.D.; for Weight Changes of Animals, Day 1: 1 mg/mouse (50 mg/mL, 20 μL) on ear; for Ear Swelling Degree: right minus left ear piece weight; for IgE Concentration / Inhibitory Rate of IgE Concentration: serum. As for the experimental part:
70 healthy male SPF Balb/c mice, each of which the weight was 19-21 g, were randomly divided into 7 groups by body weight. There were 10 mice in each group.
Before the test, the hair around the right ear of the mouse was removed to reduce the interference in the drug adhesion to the hair.
The start of the test was recorded as Day 1. After the end of the 18th day of the test, blood was taken from each animal to detect the concentration of immunoglobulin (IgE) in the serum (in accordance with the kit instructions). Both ears of the animal were cut off. Ear pieces were cut by an 8 mm punch at the fixed position of the ears and weighed. Differences in the swelling degrees of two ears were calculated.
The IgE concentrations in the serum of different groups on the 18th day were analyzed and compared statistically with One-Way Anova in SPSS 17, respectively. The G test method was used to delete outliers. p<0.05 indicated there were statistical differences. Ear swelling degree (mg)=right ear weight (mg)−left ear weight (mg); Inhibitory rate of ear swelling degree (%)=1−(ear swelling degree of drug administration group−ear swelling degree of blank control group)/(ear swelling degree of model control group−ear swelling degree of blank control group)×100%; Inhibitory rate of IgE (%)=1−(IgE concentration in administration group−IgE concentration in blank control group)/(IgE concentration in model control group−IgE concentration in blank control group)×100%.

Data set [3] deals with Phorbol ester (TPA)-induced ear swelling in mice. Put plainly: Inhibition of phorbol ester (TPA)-induced ear swelling in mice (Biological Example 5). The following applies: ICR mice, 5 hours after TPA modeling. As to the method: (§1) 72 male ICR mice were selected and divided into 9 groups. There were 8 mice in each group.
(§2) Before the test, the animals were grouped and the hair around the right ear of the mice was removed.
(§3) 20 μL of respective drug was applied to the animals in each test group (a blank solvent was applied to the model control group). Modeling and induction were carried out after 1 h 10 min. Except for the blank group, 20 μL of TPA at a concentration of 125 μg/mL were applied to the right ears of the animals for induction. After induction for 10 minutes, 20 μL of respective drug were applied to the right ears of the animals in each test group (a blank solvent was applied to the model control group).
After modeling for 5 hours, ear pieces of both sides on the same location of animals in each group were taken with a punch and weighed to calculate the ear swelling degree, ear swelling rate and inhibitory rate.
The ear swelling degree and ear swelling rate after modeling and administration for 5 hours were analyzed and tested with One-Way ANOVA multiple-group test index in SPSS17.0. P<0.05 indicated there were statistical differences. Ear swelling degree (mg)=right ear weight (mg)−left ear weight (mg); Ear swelling rate (%)=(right ear weight−left ear weight)/left ear weight×100%; Inhibitory rate of ear swelling degree (%)=1−(ear swelling degree of drug administration group−ear swelling degree of blank control group)/(ear swelling degree of model control group−ear swelling degree of blank control group)×100%.

For data set [4] the test system is unchanged. Put plainly: Inhibition of phorbol ester (TPA)-induced ear swelling in mice (Biological Example 6). As to conditions: ICR mice, 5 hours after TPA modeling; for Ear Swelling Rate / Inhibitory Rate of Ear Swelling Degree: 2 mg/mouse on right ear; for Ear Swelling Rate: (right−left)/left ear weight; for Inhibitory Rate of Ear Swelling Degree: vs model and blank control; for Ear Swelling Degree: 50 mg/mL in acetone, 40 μL in 2 administrations (2 mg/mouse). As for the experimental part:
as §1, §2, §3
After modeling for 5 hours, ear pieces of both sides at the same location of animals in each group were taken with a punch and weighed to calculate the ear swelling degree, ear swelling rate and inhibitory rate.
The ear swelling degree and ear swelling rate after modeling and administration for 5 hours were analyzed and tested with One-Way ANOVA multiple-group test index in SPSS17.0. […] Ear swelling degree (mg)=right ear weight (mg)−left ear weight (mg); Ear swelling rate (%)=(right ear weight−left ear weight)/left ear weight×100%; Inhibitory rate of ear swelling degree (%)=1−(swelling degree of drug administration group−swelling degree of blank control group)/(swelling degree of model control group−swelling degree of blank control group)×100%.

Where [5] appears, read: female ICR mice, end of the test.
Setting [6] is: female ICR mice, observed 15 days.
The mark [7] stands for this setting: surviving male ICR mice, end of the experiment.

Consider `CCOC(=O)C[C@@H](c1ccc(OC)c(OCC)c1)N1C(=O)c2cccc(NC(C)=O)c2C1=O` [Example 52, ethyl (S)-3-(4-acetamido-1,3-dioxoisoindolin-2-yl)-3-(3-ethoxy-4-methoxyphenyl)propionate], for which the Death of animals in data set [1] (ICR mice) is 1 male animal died in the second day of the test. It was. For the same compound, in data set [1] (setting [5]), the “Gross anatomy, female animals” value was “until the end of the test. No abnormalities of gross anatomy” and the “Organ indexes, female animals” value is listed as “until the end of the test. No abnormalities of gross anatomy”. In addition, in data set [1] (setting [6]), the “Clinical observation, female animals” value was “No obvious abnormalities in female animals were observed”. In addition, in data set [1] (setting [7]), the “Gross anatomy, male animals” value was “observed until the end of the experiment. No abnormalities” and the “Organ indexes, male animals” value is on record as “observed until the end of the experiment. No abnormalities”. For the same compound, in data set [2], the “Inhibitory Rate of Ear Swelling” value is 60.1%; the “Weight Changes of Animals, Day 1” value came to 21.8 ± 0.5 g; the “Weight Changes of Animals, Day 10” value is 22.6 ± 0.9 g; the “Weight Changes of Animals, Day 17” value was found to be 24.3 ± 5.6 g. In data set [2], the “Weight Changes of Animals, Day 18” value is 24.2 ± 6.0 g; the “Ear Swelling Degree” value was found to be 12.0 ± 5.4 mg; the “IgE Concentration” value was determined as 4141.5 ± 2315.0 ng/mL; the “Inhibitory Rate of IgE Concentration” value turned out to be 55.5%.
`CCOc1ccc(C(CC(=O)OC)N2C(=O)c3cccc(NC(C)=O)c3C2=O)cc1OCC` (stereo not shown) [Example 4, methyl 3-(4-acetamido-1,3-dioxoisoindolin-2-yl)-3-(3,4-diethoxyphenyl)propionate]: in data set [1] (setting [6]), the “Clinical observation, female animals” value was “After administration, no abnormalities of female animals”. Moreover, the “Clinical observation, male animals” value in data set [1] (male ICR mice, observed 15 days) is “The male animals had reduced activity and recovered after”. In data set [3] (2 mg/mouse on right ear, (right−left)/left ear weight), the “Ear Swelling Rate” value is given as 34.3 ± 18.2 %. The “Inhibitory Rate of Ear Swelling Degree” value in data set [3] (2 mg/mouse on right ear, vs model and blank control) was 88.8%. Further, in data set [3] (50 mg/mL in acetone, 40 μL in 2 administrations (2 mg/mouse)), the “Ear Swelling Degree” value came to 4.8 ± 2.1 mg.
`COC(=O)C[C@@H](c1ccc(OC)c(OC(C)C)c1)N1C(=O)c2cccc(NC(C)=O)c2C1=O` [Example 54, methyl (S)-3-(4-acetamido-1,3-dioxoisoindolin-2-yl)-3-(3-isopropoxy-4-methoxyphenyl)propionate]: the Death of animals result in data set [1] (ICR mice) is “activity. No death or abnormality of animals was observed”. In addition, the “Clinical observation: appearance, breath, behavior, reflex and defecation” value in data set [1] (ICR mice, male and female, observed 15 days) is recorded as “The main symptom after administration was reduced”. Also, in data set [2], the “Inhibitory Rate of Ear Swelling” value is reported as 43.1%; the “Weight Changes of Animals, Day 1” value amounted to 21.6 ± 0.6 g; the “Weight Changes of Animals, Day 10” value was determined as 22.6 ± 0.8 g; the “Weight Changes of Animals, Day 17” value stood at 23.3 ± 1.2 g. In data set [2], the “Weight Changes of Animals, Day 18” value turned out to be 23.1 ± 1.2 g; the “Ear Swelling Degree” value stood at 16.7 ± 3.0 mg; the “IgE Concentration” value amounted to 4873.7 ± 1356.2 ng/mL; the “Inhibitory Rate of IgE Concentration” value is listed as 45.9%.
For `COC(=O)CC(c1ccc(OC)c(OC(C)C)c1)N1C(=O)c2cccc(NC(C)=O)c2C1=O` (stereo not shown) [Example 46, methyl 3-(4-acetamido-1,3-dioxoisoindolin-2-yl)-3-(3-isopropoxy-4-methoxyphenyl)propionate], in data set [4], the “Ear Swelling Rate” value is given as 44.9 ± 35.5 %, the “Inhibitory Rate of Ear Swelling Degree” value is 82.0% and the “Ear Swelling Degree” value is reported as 6.4 ± 5.3 mg. Further, in data set [2], the “Inhibitory Rate of Ear Swelling” value is reported as 36.2%; the “Weight Changes of Animals, Day 1” value worked out at 21.6 ± 0.7 g; the “Weight Changes of Animals, Day 10” value is recorded as 22.6 ± 0.6 g; the “Weight Changes of Animals, Day 17” value was determined as 23.0 ± 0.7 g. Besides, in data set [2], the “Weight Changes of Animals, Day 18” value stood at 23.1 ± 0.7 g; the “Ear Swelling Degree” value is listed as 18.6 ± 3.9 mg; the “IgE Concentration” value was found to be 4429.8 ± 1713.9 ng/mL; the “Inhibitory Rate of IgE Concentration” value stood at 51.7%.
On to `CCOc1cc(C(CC(=O)OC)N2C(=O)c3cccc(O)c3C2=O)ccc1OC` (stereo not shown) [Example 32, methyl 3-(4-hydroxy-1,3-dioxoisoindolin-2-yl)-3-(3-ethoxy-4-methoxyphenyl)propionate], for which, in data set [4], the “Ear Swelling Rate” value is reported as 93.3 ± 28.1 %, the “Inhibitory Rate of Ear Swelling Degree” value was 55.6% and the “Ear Swelling Degree” value was found to be 13.4 ± 4.0 mg.
